Among the data in BindingDB's records for doi:10.1016/j.bmcl.2007.06.085 (Merck, 2007) are IC50 values, retold here.

In the assay the target is Substance-P receptor (Homo sapiens, UniProt P25103). The assay can be described thus: Displacement of [3H]SP from human NK1 receptor expressed in CHO cells. Background: In a radioligand displacement assay an active substance lowers the binding of a labelled ligand.

pIC50: −log10 of the molar value.

For orientation: pIC50 means the IC50 on a negative log10 scale, so that one unit is a factor of ten. A low value points to a high IC50.

Sequence of Substance-P receptor (P25103 whole entry): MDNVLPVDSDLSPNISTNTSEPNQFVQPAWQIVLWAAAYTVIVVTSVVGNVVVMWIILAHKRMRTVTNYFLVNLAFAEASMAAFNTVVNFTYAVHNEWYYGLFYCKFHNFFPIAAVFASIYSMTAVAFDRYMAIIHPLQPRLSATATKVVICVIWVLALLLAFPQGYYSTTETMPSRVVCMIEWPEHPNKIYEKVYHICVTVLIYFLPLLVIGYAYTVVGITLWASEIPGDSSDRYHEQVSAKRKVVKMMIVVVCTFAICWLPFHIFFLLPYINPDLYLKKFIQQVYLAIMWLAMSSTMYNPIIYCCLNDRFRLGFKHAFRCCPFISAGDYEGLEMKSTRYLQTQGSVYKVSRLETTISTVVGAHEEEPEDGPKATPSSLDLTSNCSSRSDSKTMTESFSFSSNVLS

Turning to `C[C@@H](O[C@@H]1CN(C2CC(=O)C(=O)C2)C[C@H]1c1ccc(F)cc1)c1cc(C(F)(F)F)cc(C(F)(F)F)c1` [3-((3S,4R)-3-((R)-1-(3,5-bis(trifluoromethyl)phenyl)ethoxy)-4-(4-fluorophenyl)pyrrolidin-1-yl)-5-hydroxycyclopent-2-enone], the pIC50 was 9.52.
